Measurements taken from PubChem BioAssay AID1963966 (Molecular Pharmacology Branch, DTP, NCI, 2024).

System: 935938-334-R-J1-PDC spheroids with HUVEC/MSC, viability
Test: Anticancer human tumor 935938-334-R-J1-PDC patient-derived small intestine adenocarcinoma cell line growth inhibition [PI3K]
Conditions: for IC50: curve of first compound; for viability, T/C: stronger effect = lower value; active = viability on the fitted dose curve at most 10% of control; inactive = the rest
Summary of the method: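 Combination activity was assessed by viability in multicellular tumor spheroids carrying HUVEC and MSC components. Agents were tested with PI3K inhibitors from a Cmax-based top dose (or 10 microM) downward in half-log increments.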

[1] = second compound 0.0316 µM, first compound 0.0316 µM
[2] = second compound 0.0316 µM, first compound 0.1 µM
[3] = second compound 0.0316 µM, first compound 0.316 µM
[4] = second compound 0.0316 µM, first compound 1 µM
[5] = second compound 0.1 µM, first compound 0.0316 µM
[6] = second compound 0.1 µM, first compound 0.1 µM
[7] = second compound 0.1 µM, first compound 0.316 µM
[8] = second compound 0.1 µM, first compound 1 µM
[9] = second compound 0.316 µM, first compound 0.0316 µM
[10] = second compound 0.316 µM, first compound 0.1 µM
[11] = second compound 0.316 µM, first compound 0.316 µM
[12] = second compound 0.316 µM, first compound 1 µM
[13] = second compound 1 µM, first compound 0.0316 µM
[14] = second compound 1 µM, first compound 0.1 µM
[15] = second compound 1 µM, first compound 0.316 µM
[16] = second compound 1 µM, first compound 1 µM
[17] = second compound 3.16 µM, first compound 0.0316 µM
[18] = second compound 3.16 µM, first compound 0.1 µM
[19] = second compound 3.16 µM, first compound 0.316 µM
[20] = second compound 3.16 µM, first compound 1 µM
[21] = second compound 10 µM, first compound 0.0316 µM
[22] = second compound 10 µM, first compound 0.1 µM
[23] = second compound 10 µM, first compound 0.316 µM
[24] = second compound 10 µM, first compound 1 µM
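Note: compound exposure lasted seven days before viability was read.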
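Throughout, for viability, T/C: percent of vehicle DMSO treated spheroid viability so 100% = untreated.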

CC(C)NCC(C(=O)N1CCN(c2ncnc3c2C(C)CC3O)CC1)c1ccc(Cl)cc1 (centres undefined) + CC(Nc1ncnc2nc[nH]c12)c1cc2cccc(Cl)c2c(=O)n1-c1ccccc1
3420 nM: IC50 (second compound 0.1 µM)
inactive: viability, T/C [1] 75.5% | viability, T/C [2] 80% | viability, T/C [3] 72.4% | viability, T/C [4] 64% | viability, T/C (second compound 0.0316 µM, first compound 3.16 µM) 78.6% | viability, T/C (second compound 0.0316 µM, first compound 10 µM) 40.6% | viability, T/C [5] 91.7% | viability, T/C [6] 69.4% | viability, T/C [7] 79.6% | viability, T/C [8] 60.5% | viability, T/C (second compound 0.1 µM, first compound 3.16 µM) 55.1% | viability, T/C (second compound 0.1 µM, first compound 10 µM) 34.1% | viability, T/C [9] 93.1% | viability, T/C [10] 93% | viability, T/C [11] 60.6% | viability, T/C [12] 58% | viability, T/C (second compound 0.316 µM, first compound 3.16 µM) 65.8% | viability, T/C (second compound 0.316 µM, first compound 10 µM) 42.3% | viability, T/C [13] 100% | viability, T/C [14] 87.3% | viability, T/C [15] 59.5% | viability, T/C [16] 67.2% | viability, T/C (second compound 1 µM, first compound 3.16 µM) 40.5% | viability, T/C (second compound 1 µM, first compound 10 µM) 31.4% | viability, T/C [17] 64.6% | viability, T/C [18] 78.1% | viability, T/C [19] 70% | viability, T/C [20] 64.1% | viability, T/C (second compound 3.16 µM, first compound 3.16 µM) 44.1% | viability, T/C (second compound 3.16 µM, first compound 10 µM) 49.6% | viability, T/C [21] 69.5% | viability, T/C [22] 59.8% | viability, T/C [23] 65.5% | viability, T/C [24] 62% | viability, T/C (second compound 10 µM, first compound 3.16 µM) 40.1% | viability, T/C (second compound 10 µM, first compound 10 µM) 40.8%
1780 nM: IC50 (second compound 1 µM)
1900 nM: IC50 (second compound 10 µM)
2560 nM: IC50 (second compound 3.16 µM)
7260 nM: IC50 (second compound 0.0316 µM)
6420 nM: IC50 (second compound 0.316 µM)

CCN1CCN(Cc2ccc(Nc3ncc(F)c(-c4cc(F)c5nc(C)n(C(C)C)c5c4)n3)nc2)CC1 + CC(Nc1ncnc2nc[nH]c12)c1cc2cccc(Cl)c2c(=O)n1-c1ccccc1
185 nM: IC50 (second compound 0.316 µM)
223 nM: IC50 (second compound 0.0316 µM)
inactive: viability, T/C (second compound 0.0316 µM, first compound 0.00316 µM) 90.2% | viability, T/C (second compound 0.0316 µM, first compound 0.01 µM) 85.8% | viability, T/C [1] 71.4% | viability, T/C [2] 58.9% | viability, T/C [3] 46.8% | viability, T/C [4] 37.3% | viability, T/C (second compound 0.1 µM, first compound 0.00316 µM) 95.7% | viability, T/C (second compound 0.1 µM, first compound 0.01 µM) 92.6% | viability, T/C [5] 73.8% | viability, T/C [6] 62.9% | viability, T/C [7] 41% | viability, T/C [8] 48.2% | viability, T/C (second compound 0.316 µM, first compound 0.00316 µM) 79.4% | viability, T/C (second compound 0.316 µM, first compound 0.01 µM) 85% | viability, T/C [9] 70.3% | viability, T/C [10] 53.4% | viability, T/C [11] 49.1% | viability, T/C [12] 35.2% | viability, T/C (second compound 1 µM, first compound 0.00316 µM) 77% | viability, T/C (second compound 1 µM, first compound 0.01 µM) 86% | viability, T/C [13] 66.7% | viability, T/C [14] 64.4% | viability, T/C [15] 43.1% | viability, T/C [16] 31.5% | viability, T/C (second compound 3.16 µM, first compound 0.00316 µM) 74.3% | viability, T/C (second compound 3.16 µM, first compound 0.01 µM) 68% | viability, T/C [17] 57.5% | viability, T/C [18] 56.8% | viability, T/C [19] 43.6% | viability, T/C [20] 40.1% | viability, T/C (second compound 10 µM, first compound 0.00316 µM) 59.3% | viability, T/C (second compound 10 µM, first compound 0.01 µM) 82.1% | viability, T/C [21] 63.4% | viability, T/C [22] 39% | viability, T/C [23] 38.3% | viability, T/C [24] 34.6%
58.9 nM: IC50 (second compound 10 µM)
215 nM: IC50 (second compound 1 µM)
246 nM: IC50 (second compound 0.1 µM)
164 nM: IC50 (second compound 3.16 µM)
